Measured values taken from patent US10294234B2, “HIV inhibitor compounds” (priority 2017, dated 2019).
pEC50: −log10 of the molar value. Like-named read-outs stand apart in the source and are kept apart here.

How the values were obtained:
[1] = Method in brief: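 LC/MS/MS read-out of parent compound remaining; in vitro t1/2 converted to Clint. Incubation: 1 uM compound, 0.5 mg/mL dog/rat/human liver microsomes, NADPH-regenerating system, duplicate sets, time-points 2–65 minutes.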
[2] = tested on: HIV-1 (IIIB) in MT-4 cells; assay: MT-4 HIV assay; assay type: cell-based; details: Human immunodeficiency virus 1, MT4, 120 h
Method in brief: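 Antiviral activity was read by Cell Titer Glo after a 5-day, 37 °C culture of MT-4 cells pre-infected with a 1:250 dilution of HIV-1 (IIIB). Compounds were tested as threefold dilution series in complete RPMI. Controls were no drug, mock infection and 5 uM AZT.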

[3] = HIV-1 (IIIB), MT-4 cells, 5 days, Cell Titer Glo, read-out: EC50
[4] = human liver microsomes 0.5 mg/mL, 1 uM compound, NADPH
[5] = rat liver microsomes 0.5 mg/mL, 1 uM compound, NADPH

Human Pred Cl. [1, 4] | Rat. Pred. Cl. [1, 5] | Compound | Human Pred Cl. ([1]; human, microsomes) | Rat. Pred. Cl. ([1]; rat, microsomes) | pEC50 [2, 3] | pEC50 [2]
0.16 L/H/kg | 0.32 L/H/kg | COC(=O)N[C@H](C(=O)N[C@@H](Cc1ccc(C#Cc2cnc(N3CCN(C4COC4)CC3)nc2)cc1)[C@@H](O)CN(Cc1c(F)cc(-c2cnn(C(F)F)c2)cc1F)NC(=O)[C@@H](NC(=O)OC)C(C)(C)C(F)(F)F)C(C)(C)C(F)(F)F [Example 103, Methyl ((5S,8S,9S,14S)-11-(4-(1-(difluoromethyl)-1H-pyrazol-4-yl)-2,6-difluorobenzyl)-16,16,16-trifluoro-9-hydroxy-15,15-dimethyl-8-(4-((2-(4-(oxetan-3-yl)piperazin-1-yl)pyrimidin-5-yl)ethynyl)benzyl)-3,6,13-trioxo-5-(1,1,1-trifluoro-2-methylpropan-2-yl)-2-oxa-4,7,11,12-tetraazahexadecan-14-yl)carbamate] |  |  | 8.32 | 
0.46 L/H/kg | 0.31 L/H/kg | COC(=O)N[C@H](C(=O)N[C@@H](Cc1ccc(C#Cc2ccc(N3CCN(C4COC4)CC3)nc2)cc1)[C@@H](O)CN(Cc1c(F)cc(-c2ccc(F)cn2)cc1F)NC(=O)[C@@H](NC(=O)OC)C(C)(C)C(F)(F)F)C(C)(C)C(F)(F)F [Example 97, Methyl ((5S,8S,9S,14S)-11-(2,6-difluoro-4-(5-fluoropyridin-2-yl)benzyl)-16,16,16-trifluoro-9-hydroxy-15,15-dimethyl-8-(4-((6-(4-(oxetan-3-yl)piperazin-1-yl)pyridin-3-yl)ethynyl)benzyl)-3,6,13-trioxo-5-(1,1,1-trifluoro-2-methylpropan-2-yl)-2-oxa-4,7,11,12-tetraazahexadecan-14-yl)carbamate] |  |  |  | 8.34
0.14 L/H/kg | 0.67 L/H/kg | COC(=O)N[C@H](C(=O)NN(Cc1c(F)cc(-c2ccn(C3CC3)n2)cc1F)C[C@H](O)[C@H](Cc1ccc(C#Cc2ccc(N3C[C@H]4C[C@@H]3CN4C3COC3)nc2)cc1)NC(=O)[C@@H](NC(=O)OC)C(C)(C)C(F)(F)F)C(C)(C)C [Example 90, Methyl ((5S,8S,9S,14S)-11-(4-(1-cyclopropyl-1H-pyrazol-3-yl)-2,6-difluorobenzyl)-9-hydroxy-15,15-dimethyl-8-(4-((6-((1R,4R)-5-(oxetan-3-yl)-2,5-diazabicyclo[2.2.1]heptan-2-yl)pyridin-3-yl)ethynyl)benzyl)-3,6,13-trioxo-5-(1,1,1-trifluoro-2-methylpropan-2-yl)-2-oxa-4,7,11,12-tetraazahexadecan-14-yl)carbamate] |  |  |  | 8.46

Second part, the compound before the results:

Compound | Human Pred Cl. [1, 4] | Rat. Pred. Cl. [1, 5] | Human Pred Cl. ([1]; human, microsomes) | Rat. Pred. Cl. ([1]; rat, microsomes) | pEC50 [2, 3] | pEC50 [2]
COC(=O)N[C@H](C(=O)N[C@@H](Cc1ccc(C#Cc2ccc(N3CC4COCC(C3)N4C3COC3)nc2)cc1)[C@@H](O)CN(Cc1c(F)cc(-c2ccccn2)cc1F)NC(=O)[C@@H](NC(=O)OC)C(C)(C)C(F)(F)F)C(C)(C)C(F)(F)F [Example 179, Methyl ((5S,8S,9S,14S)-11-(2,6-difluoro-4-(pyridin-2-yl)benzyl)-16,16,16-trifluoro-9-hydroxy-15,15-dimethyl-8-(4-((6-(9-(oxetan-3-yl)-3-oxa-7,9-diazabicyclo[3.3.1]nonan-7-yl)pyridin-3-yl)ethynyl)benzyl)-3,6,13-trioxo-5-(1,1,1-trifluoro-2-methylpropan-2-yl)-2-oxa-4,7,11,12-tetraazahexadecan-14-yl)carbamate] |  |  | 0.33 L/H/kg | 0.27 L/H/kg | 8.45 | 
COC(=O)N[C@H](C(=O)NN(Cc1c(F)cc(-c2ccn(C(F)F)n2)cc1F)C[C@H](O)[C@H](Cc1ccc(C#Cc2ccc(N3CC4CCC(C3)N4S(C)(=O)=O)nc2)cc1)NC(=O)[C@@H](NC(=O)OC)C(C)(C)C(F)(F)F)C(C)(C)C [Example 72, Methyl ((5S,8S,9S,14S)-11-(4-(1-(difluoromethyl)-1H-pyrazol-3-yl)-2,6-difluorobenzyl)-9-hydroxy-15,15-dimethyl-8-(4-((6-(8-(methylsulfonyl)-3,8-diazabicyclo[3.2.1]octan-3-yl)pyridin-3-yl)ethynyl)benzyl)-3,6,13-trioxo-5-(1,1,1-trifluoro-2-methylpropan-2-yl)-2-oxa-4,7,11,12-tetraazahexadecan-14-yl)carbamate] |  |  | 0.14 L/H/kg | <0.18 L/H/kg | 8.28 | 
COC(=O)N[C@H](C(=O)N[C@@H](Cc1ccc(C#Cc2ccc(N3CC4CCC(C3)N4C3COC3)nc2C)cc1)[C@@H](O)CN(Cc1c(F)cc(-c2ccccn2)cc1F)NC(=O)[C@@H](NC(=O)OC)C(C)(C)C(F)(F)F)C(C)(C)C(F)(F)F [Example 78, Methyl ((5S,8S,9S,14S)-11-(2,6-difluoro-4-(pyridin-2-yl)benzyl)-16,16,16-trifluoro-9-hydroxy-15,15-dimethyl-8-(4-((2-methyl-6-(8-(oxetan-3-yl)-3,8-diazabicyclo[3.2.1]octan-3-yl)pyridin-3-yl)ethynyl)benzyl)-3,6,13-trioxo-5-(1,1,1-trifluoro-2-methylpropan-2-yl)-2-oxa-4,7,11,12-tetraazahexadecan-14-yl)carbamate] |  |  | <0.11 L/H/kg | <0.18 L/H/kg | 8.20 | 
CC(C)([C@H](NC(=O)C1CC1)C(=O)N[C@@H](Cc1ccc(-c2cnn(C(F)F)c2)cc1)[C@@H](O)CN(Cc1c(F)cc(-c2cnn(C(F)F)c2)cc1F)NC(=O)[C@@H](NC(=O)C1CC1)C(C)(C)C(F)(F)F)C(F)(F)F [Example 214, N—((S)-1-(2-((2S,3S)-3-((S)-2-(cyclopropanecarboxamido)-4,4,4-trifluoro-3,3-dimethylbutanamido)-4-(4-(1-(difluoromethyl)-1H-pyrazol-4-yl)phenyl)-2-hydroxybutyl)-2-(4-(1-(difluoromethyl)-1H-pyrazol-4-yl)-2,6-difluorobenzyl)hydrazinyl)-4,4,4-trifluoro-3,3-dimethyl-1-oxobutan-2-yl)cyclopropanecarboxamide] | <0.11 L/H/kg | <0.18 L/H/kg |  |  | 7.91 | 
COC(=O)N[C@H](C(=O)N[C@@H](Cc1ccc(C#Cc2ccc(N3CC4CC(C3)N4C3COC3)nc2)cc1)[C@@H](O)CN(Cc1c(F)cc(-c2ccn(C3CC3)n2)cc1F)NC(=O)[C@@H](NC(=O)OC)C(C)(C)C(F)(F)F)C(C)(C)C(F)(F)F [Example 40, Methyl ((5S,8S,9S,14S)-11-(4-(1-cyclopropyl-1H-pyrazol-3-yl)-2,6-difluorobenzyl)-16,16,16-trifluoro-9-hydroxy-15,15-dimethyl-8-(4-((6-(6-(oxetan-3-yl)-3,6-diazabicyclo[3.1.1]heptan-3-yl)pyridin-3-yl)ethynyl)benzyl)-3,6,13-trioxo-5-(1,1,1-trifluoro-2-methylpropan-2-yl)-2-oxa-4,7,11,12-tetraazahexadecan-14-yl)carbamate] |  |  | 0.13 L/H/kg | 0.5 L/H/kg | 8.41 | 
